The compounds below were run against Human Factor D (Homo sapiens (Human), UniProt P00746) (assay: Human Factor D Assay). Settings: Table 6; Factor D 80 nM, substrate Z-L-Lys-SBz; read-out: IC50.
Sequence of Human Factor D (P00746 26-253): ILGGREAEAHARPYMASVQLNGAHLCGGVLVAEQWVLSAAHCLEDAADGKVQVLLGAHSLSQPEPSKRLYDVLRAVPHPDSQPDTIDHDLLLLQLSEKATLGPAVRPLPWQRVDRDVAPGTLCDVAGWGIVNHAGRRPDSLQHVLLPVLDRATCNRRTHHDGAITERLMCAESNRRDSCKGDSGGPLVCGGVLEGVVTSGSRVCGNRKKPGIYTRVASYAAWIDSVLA
Assay type: biochemical
Procedure: The assay of Example 10 was used to determine the IC50's of the compounds. Other standard factor D inhibition assays are also available.
Human Factor D (purified from human serum, Complement Technology, Inc.) at 80 nM final concentration is incubated with test compound at various concentrations for 5 min at room temperature in 50 mM Tris, 1M NaCl, pH 7.5. A synthetic substrate Z-L-Lys-SBz and DTNB (Ellman's reagent) are added to final concentrations of 100 μM each. Absorbance at 405 nm (A405) is recorded at 30 second intervals for 30 min using a microplate spectrophotometer. IC50 values are calculated by nonlinear regression of complement Factor D reaction rates as a function of test compound concentration.
`CC(=O)c1nn(CC(=O)N2[C@H](C(=O)O)C[C@@]3(C)C[C@@H]23)c2ccc(-c3cnc(C)nc3)cc12` [Compound 40, (1R,3S,5R)-2-(2-(3-acetyl-5-(2-methylpyrimidin-5-yl)-1H-indazol-1-yl)acetyl)-5-methyl-2-azabicyclo[3.1.0]hexane-3-carboxylic acid] was tested, and the IC50 was > 10 µM. `CC(=O)c1nn(CC(=O)N2C[C@H](F)C[C@H]2C(=O)Nc2cccc(Br)n2)c2c(C(=O)O)cc(-c3cnc(C)nc3)cc12` [Compound 41, 3-acetyl-1-(2-((2S,4R)-2-((6-bromopyridin-2-yl)carbamoyl)-4-fluoropyrrolidin-1-yl)-2-oxoethyl)-5-(2-methylpyrimidin-5-yl)-1H-indazole-7-carboxylic acid] was tested, and the IC50 was < 1 µM. `CNCC12CC1N(C(=O)Cn1nc(C(C)=O)c3cc(-c4cnc(C)nc4)ccc31)[C@H](C(=O)Nc1nc(Br)ccc1C)C2` (stereo partly drawn) [Compound 42, (3S)-2-(2-(3-acetyl-5-(2-methylpyrimidin-5-yl)-1H-indazol-1-yl)acetyl)-N-(6-bromo-3-methylpyridin-2-yl)-5-((methylamino)methyl)-2-azabicyclo[3.1.0]hexane-3-carboxamide] was tested, and the IC50 was < 1 µM. Compound `CC(=O)NC[C@@]12C[C@@H]1N(C(=O)Cn1nc(C(C)=O)c3cc(-c4cnc(C)nc4)ccc31)[C@H](C(=O)Nc1cccc(Br)n1)C2` [Compound 43, (1S,3S,5S)-5-(Acetamidomethyl)-2-(2-(3-acetyl-5-(2-methylpyrimidin-5-yl)-1H-indazol-1-yl)acetyl)-N-(6-bromopyridin-2-yl)-2-azabicyclo[3.1.0]hexane-3-carboxamide] has an IC50 of 1 to 10 µM. In the case of `CC(=O)NC[C@@]12C[C@@H](C(=O)Nc3cccc(Br)n3)N(C(=O)Cn3nc(C(C)=O)c4cc(-c5cnc(C)nc5)ccc43)[C@@H]1C2` [Compound 44, (1R,3S,5R)-5-(Acetamidomethyl)-2-(2-(3-acetyl-5-(2-methylpyrimidin-5-yl)-1H-indazol-1-yl)acetyl)-N-(6-bromopyridin-2-yl)-2-azabicyclo[3.1.0]hexane-3-carboxamide], the IC50 is reported as < 1 µM. `COC(=O)N[C@H](C(=O)NCC12CC1N(C(=O)Cn1nc(C(C)=O)c3cc(-c4cnc(C)nc4)ccc31)[C@H](C(=O)Nc1cccc(Br)n1)C2)C(C)C` (stereo partly drawn) [Compound 45, Methyl (2S)-1-(((3S)-2-(2-(3-acetyl-5-(2-methylpyrimidin-5-yl)-1H-indazol-1-yl)acetyl)-3-(6-bromopyridin-2-ylcarbamoyl)-2-azabicyclo[3.1.0]hexan-5-yl)methylamino)-3-methyl-1-oxobutan-2-ylcarbamate] was tested, and the IC50 was < 1 µM. With `CC(=O)c1nn(CC(=O)N2[C@H](C(=O)Nc3ccc(F)c(Br)n3)C[C@@]3(C)C[C@@H]23)c2c(C)cc(-c3cnc(C)nc3)cc12` [Compound 46, (1R,3S,5R)-2-(2-(3-acetyl-7-methyl-5-(2-methylpyrimidin-5-yl)-1H-indazol-1-yl)acetyl)-N-(6-bromo-5-fluoropyridin-2-yl)-5-methyl-2-azabicyclo[3.1.0]hexane-3-carboxamide] the IC50 was < 1 µM. `CCc1cc(-c2cnc(C)nc2)cc2c(C(C)=O)nn(CC(=O)N3[C@H](C(=O)Nc4nc(Br)ccc4C)C[C@@]4(C)C[C@@H]34)c12` [Compound 47, (1R,3S,5R)-2-(2-(3-Acetyl-7-ethyl-5-(2-methylpyrimidin-5-yl)-1H-indazol-1-yl)acetyl)-N-(6-bromo-3-methylpyridin-2-yl)-5-methyl-2-azabicyclo[3.1.0]hexane-3-carboxamide] was tested, and the IC50 was < 1 µM. For `COCc1ccc(Br)c(NC(=O)[C@@H]2CC3(CNC(=O)[C@@H](NC(=O)OC)C(C)C)CC3N2C(=O)Cn2nc(C(C)=O)c3cc(-c4cnc(C)nc4)ccc32)n1` (stereo partly drawn) [Compound 48, methyl ((2S)-1-((((3S)-2-(2-(3-acetyl-5-(2-methylpyrimidin-5-yl)-1H-indazol-1-yl)acetyl)-3-((3-bromo-6-(methoxymethyl)pyridin-2-yl)carbamoyl)-2-azabicyclo[3.1.0]hexan-5-yl)methyl)amino)-3-methyl-1-oxobutan-2-yl)carbamate], the IC50 was > 10 µM. For `CC(=O)c1nn(CC(=O)N2[C@H](C(=O)Nc3nc(Br)ccc3C)C[C@@]3(C)C[C@@H]23)c2c(C)cc(-c3cnc(C)[n+]([O-])c3)cc12` [Compound 50, 5-(3-Acetyl-1-(2-((1R,3S,5R)-3-(6-bromo-3-methylpyridin-2-ylcarbamoyl)-5-methyl-2-azabicyclo[3.1.0]hexan-2-yl)-2-oxoethyl)-7-methyl-1H-indazol-5-yl)-2-methylpyrimidine 1-oxide], the IC50 was < 1 µM. In the case of `Cc1ncc(-c2ccc3c(c2)c(C(N)=O)nn3CC(=O)N2C[C@H]3C[C@H]3[C@H]2C(=O)Nc2nc(Br)ccc2C)cn1` [Compound 56, 1-(2-((1R,2S,5S)-2-((6-Bromo-3-methylpyridin-2-yl)carbamoyl)-3-azabicyclo[3.1.0]hexan-3-yl)-2-oxoethyl)-5-(2-methylpyrimidin-5-yl)-1H-indazole-3-carboxamide], the IC50 is reported as < 1 µM. For `Cc1ncc(-c2cc(C)c3c(c2)c(C(N)=O)nn3CC(=O)N2[C@H](C(=O)Nc3nc(Br)ccc3C)C[C@@]3(C)C[C@@H]23)cn1` [Compound 57, 1-(2-((1R,3S,5R)-3-((6-Bromo-3-methylpyridin-2-yl)carbamoyl)-5-methyl-2-azabicyclo[3.1.0]hexan-2-yl)-2-oxoethyl)-7-methyl-5-(2-methylpyrimidin-5-yl)-1H-indazole-3-carboxamide], the IC50 was < 1 µM. For `Cc1ncc(-c2cc(C)c3c(c2)c(C(N)=O)nn3CC(=O)N2[C@H](C(=O)Nc3cccc(Br)n3)C[C@@]3(C)C[C@@H]23)cn1` [Compound 58, 1-(2-((1R,3S,5R)-3-((6-Bromopyridin-2-yl)carbamoyl)-5-methyl-2-azabicyclo[3.1.0]hexan-2-yl)-2-oxoethyl)-7-methyl-5-(2-methylpyrimidin-5-yl)-1H-indazole-3-carboxamide], the IC50 was < 1 µM. For `CC(=O)c1nn(CC(=O)N2C[C@H](F)C[C@H]2C(=O)Nc2nc(Br)ccc2CC(=O)O)c2ccc(-c3cnc(C)nc3)cc12` [Compound 62, 2-(2-((2S,4R)-1-(2-(3-Acetyl-5-(2-methylpyrimidin-5-yl)-1H-indazol-1-yl)acetyl)-4-fluoropyrrolidine-2-carboxamido)-6-bromopyridin-3-yl)acetic Acid], the IC50 was < 1 µM. For `CC(=O)c1nn(CC(=O)N2[C@H](C(=O)Nc3nc(Br)ccc3C)C[C@@]3(C)C[C@@H]23)c2ccc(-c3cnc(C)[n+]([O-])c3)cc12` [Compound 64, 5-(3-acetyl-1-(2-((1R,3S,5R)-3-((6-bromo-3-methylpyridin-2-yl)carbamoyl)-5-methyl-2-azabicyclo[3.1.0]hexan-2-yl)-2-oxoethyl)-1H-indazol-5-yl)-2-methylpyrimidine 1-oxide], the IC50 was < 1 µM. For `CC(=O)c1nn(CC(=O)N2[C@H](C(=O)Nc3nc(Br)ccc3C)C[C@@]3(CO)C[C@@H]23)c2ccc(-c3cnc(C)nc3)cc12` [Compound 65, (1R,3S,5S)-2-(2-(3-acetyl-5-(2-methylpyrimidin-5-yl)-1H-indazol-1-yl)acetyl)-N-(6-bromo-3-methylpyridin-2-yl)-5-(hydroxymethyl)-2-azabicyclo[3.1.0]hexane-3-carboxamide], the IC50 was < 1 µM. For `CC(=O)c1nn(CC(=O)N2C[C@@](F)(CF)C[C@H]2C(=O)Nc2nc(Br)ccc2C)c2c(C)cc(-c3cnc(C)nc3)cc12` [Compound 66, (2S,4R)-1-(2-(3-Acetyl-7-methyl-5-(2-methylpyrimidin-5-yl)-1H-indazol-1-yl)acetyl)-N-(6-bromo-3-methylpyridin-2-yl)-4-fluoro-4-(fluoromethyl)pyrrolidine-2-carboxamide], the IC50 was < 1 µM. In the case of `CC(=O)c1nn(CC(=O)N2[C@H](C(=O)Nc3nc(Br)ccc3C)C[C@@]3(CN4CC5(CCC5)C4)C[C@@H]23)c2ccc(-c3cnc(C)nc3)cc12` [Compound 67, (1R,3S,5R)-5-(2-azaspiro[3.3]heptan-2-ylmethyl)-2-(2-(3-acetyl-5-(2-methylpyrimidin-5-yl)-1H-indazol-1-yl)acetyl)-N-(6-bromo-3-methylpyridin-2-yl)-2-azabicyclo[3.1.0]hexane-3-carboxamide], the IC50 is reported as < 1 µM. `CC(=O)c1nn(CC(=O)N2[C@H]3C[C@@]3(CN3CC4(CCC4)C3)C[C@H]2C(=O)Nc2nc(Br)ccc2C)c2ccc(-c3cnc(C)nc3)cc12` [Compound 68] was tested, and the IC50 was < 1 µM. For `CC(=O)c1nn(CC(=O)N2[C@H](C(=O)Nc3nc(Br)ccc3C)C[C@@]3(CN4CCN(C)CC4)C[C@@H]23)c2c(C)cc(-c3cnc(C)nc3)cc12` [Compound 69, (1R,3S,5R)-2-(2-(3-Acetyl-7-methyl-5-(2-methylpyrimidin-5-yl)-1H-indazol-1-yl)acetyl)-N-(6-bromo-3-methylpyridin-2-yl)-5-((4-methylpiperazin-1-yl)methyl)-2-azabicyclo[3.1.0]hexane-3-carboxamide], the IC50 was < 1 µM. `C=CCOCc1ccc(Br)nc1NC(=O)[C@@H]1C[C@@]2(CN(C)CC=C)C[C@H]2N1C(=O)Cn1nc(C(C)=O)c2cc(-c3cnc(C)nc3)ccc21` [Compound 70, (1R,3S,5R)-2-(2-(3-Acetyl-5-(2-methylpyrimidin-5-yl)-1H-indazol-1-yl)acetyl)-5-((allyl(methyl)amino)methyl)-N-(3-((allyloxy)methyl)-6-bromopyridin-2-yl)-2-azabicyclo[3.1.0]hexane-3-carboxamide] was tested, and the IC50 was < 1 µM. `Cc1ncc(-c2ccc3c(c2)c(C(C)O)nn3CC(=O)N2C[C@H]3C[C@H]3[C@H]2C(=O)Nc2nc(Br)ccc2C)cn1` (stereo partly drawn) [Compound 71, (1R,2S,5S)-N-(6-bromo-3-methylpyridin-2-yl)-3-(2-(3-(1-hydroxyethyl)-5-(2-methylpyrimidin-5-yl)-1H-indazol-1-yl)acetyl)-3-azabicyclo[3.1.0]hexane-2-carboxamide] showed an IC50 of 1 to 10 µM.

From patent US11084800B2 (Achillion Pharmaceuticals, Inc., priority 2017, dated 2021)
